Test results from patent publication US20260174786A1, “A NITROGEN-CONTAINING SPIROCYCLIC COMPOUND, PHARMACEUTICAL COMPOSITION AND USE THEREOF” (Prime Gene Therapeutics Co., Ltd., priority 2022, published 2026).

Molecular target: T1, hTRPV3 (Homo sapiens, UniProt Q8NET8)
T1 construct: expressed in transfected cells; host or cells: HEK-293
T1 sequence (Q8NET8 1-790): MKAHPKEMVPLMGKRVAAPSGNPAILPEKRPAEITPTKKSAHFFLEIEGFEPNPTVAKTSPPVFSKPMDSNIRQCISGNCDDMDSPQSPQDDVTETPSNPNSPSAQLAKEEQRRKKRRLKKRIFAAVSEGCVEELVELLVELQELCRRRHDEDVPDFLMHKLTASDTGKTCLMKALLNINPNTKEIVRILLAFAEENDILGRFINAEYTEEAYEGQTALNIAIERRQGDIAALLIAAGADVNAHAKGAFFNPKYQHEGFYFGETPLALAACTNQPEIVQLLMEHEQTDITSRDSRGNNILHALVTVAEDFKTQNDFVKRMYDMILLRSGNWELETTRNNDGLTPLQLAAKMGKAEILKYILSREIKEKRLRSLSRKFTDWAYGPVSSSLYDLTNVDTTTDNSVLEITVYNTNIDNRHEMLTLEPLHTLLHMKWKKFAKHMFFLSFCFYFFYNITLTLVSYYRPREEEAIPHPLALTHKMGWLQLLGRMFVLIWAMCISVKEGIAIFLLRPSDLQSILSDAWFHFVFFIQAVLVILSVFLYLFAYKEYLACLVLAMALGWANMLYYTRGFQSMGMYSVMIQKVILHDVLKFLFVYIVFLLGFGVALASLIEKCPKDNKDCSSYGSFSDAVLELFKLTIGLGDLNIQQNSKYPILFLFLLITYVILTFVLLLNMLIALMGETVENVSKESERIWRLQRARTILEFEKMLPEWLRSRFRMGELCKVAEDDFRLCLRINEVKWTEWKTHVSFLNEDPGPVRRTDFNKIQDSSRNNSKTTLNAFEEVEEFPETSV
Assay: Whole cell patch clamp inhibition rate test on HEK-293 cells instantaneously expressing TRPV3
Type: cell-based
Details: HEK293; hTRPV3, single concentration 0.3 μM
Procedure: In this study, HEK-293 cells instantaneously expressing TRPV3 were used for experimental detection.
The operation steps are as follows:
The cells were cultured in DMEM medium containing 10% fetal bovine serum at a temperature of 37° C. and a carbon dioxide concentration of 5%.
Day 1: Cells were inoculated into a 6-well plate with 5×10^5 cells per well.
Day 2: Transfection was performed using Lipofectamine 3000 transfection reagent, with a plasmid to transfection reagent ratio of 1 μg: 2 μL. The total amount of plasmid used per well was 3 μg. Specifically, two sterile centrifuge tubes were taken and 100 μL Opti-MEM was added to each tube. 6 μL Lipofectamine 3000 was added to one tube and mixed well; and 3 μg plasmid was added to another tube and mixed well, and then 6 μL P3000 was added and mixed well; Subsequently, the diluted plasmid DNA was added to diluted Lipofectamine 3000 and incubated at room temperature for 10-15 min. DNA liposome complex was dropped into the cells, shaked gently and mixed well, and then cultured in an incubator. The liquid was changed after 4 to 6 h.
Day 3: The cells were digested and seeded into 24 well plates with pre-placed cover slides, with 8×10^3 cells per well.
Day 4: Patch clamp testing was performed.
The voltage stimulation protocol for recording TRPV3 current using whole cell patch clamp is as follows: after forming a whole cell seal, a cell membrane voltage clamp was set at −80 mV. Firstly, a membrane potential was recorded at 0 mV, and then a voltage was command to start from −100 mV, to depolarize in the form of Ramp to 100 mV within 100 ms, and finally restore to 0 mV. Data collection was repeated every 5 seconds to observe the inhibitory effect of pharmaceutical on peak current. Experimental data was collected by EPC 10 amplifier (HEKA) and stored in PatchMaster (HEKA) software.
A microelectrode puller was used to pull the capillary glass tube into a recording electrode. The electrode filled with intracellular fluid was inserted into a microelectrode holder, and a microelectrode manipulator was operated under an inverted microscope to immerse the electrode in extracellular fluid and an electrode resistance (Rpip) was recorded. The electrode was brought into contact with the cell surface and a negative pressure suction was applied to form a high resistance seal (GΩ). At this point, a fast capacitance compensation was performed, and negative pressure was continued to apply in order to break the cell membrane, so that a whole cell recording mode was formed. Then, a slow capacitance compensation was performed and experimental parameters such as film capacitance (Cm) and series resistance (Rs) were recorded. No leakage compensation was provided.
When the TRPV3 current recorded by the whole cell had stabilized, administration was started. Each pharmaceutical concentration acted for 5 minutes (or until the current stabilized) before detecting the next concentration. A plurality of concentrations was tested for each test compound. A cover glass covered with cells was placed in a recording bath under an inverted microscope. A blank control extracellular solution and a working fluid for the compound to be tested sequentially flowed through the recording bath from low concentration to high concentration using gravity perfusion to act on the cells. Liquid exchange was performed using a peristaltic pump during recording. The current detected by each cell in the extracellular fluid without the compound served as its own control group. Each concentration was independently tested twice using at least two cells. All electrophysiological tests were conducted at room temperature.

Row | Structure (SMILES) | inhibition at 0.3 µM [%]
1 | CC(C)c1ccccc1-c1ccc2c(c1)[C@@H](O)C[C@]21CCN(C(=O)c2ccc(F)cn2)C1 [Example 27] | < 25
2 | CC(C)c1ccccc1-c1ccc2c(c1)[C@@H](O)C[C@@]21CCN(C(=O)c2ccc(F)cn2)C1 [Example 28] | < 25
3 | O=C(c1csc(Cl)n1)N1CC[C@@]2(C[C@@H](O)c3cc(-c4ccccc4C4CC4)ccc32)C1 [Example 29, (2-chlorothiazol-4-yl)((1S,3R)-5-(2-cyclopropylphenyl)-3-hydroxy-2,3-dihydrospiro[indene-1,3′-pyrrolidine]-1′-yl)ketone] | 70 to 100
4 | O=C(c1csc(Cl)n1)N1CC[C@]2(C[C@@H](O)c3cc(-c4ccccc4C4CC4)ccc32)C1 [Example 30, (2-chlorothiazol-4-yl)((1R,3R)-5-(2-cyclopropylphenyl)-3-hydroxy-2,3-dihydrospiro[indene-1,3′-pyrrolidine]-1′-yl)ketone] | < 25
5 | O=C(c1csc(Cl)n1)N1CC[C@@]2(C[C@H](O)c3cc(-c4ccccc4C4CC4)ccc32)C1 [Example 31, (2-chlorothiazol-4-yl)((1S,3S)-5-(2-cyclopropylphenyl)-3-hydroxy-2,3-dihydrospiro[indene-1,3′-pyrrolidine]-1′-yl)ketone] | < 25
6 | O=C(c1csc(Cl)n1)N1CC[C@]2(C[C@H](O)c3cc(-c4ccccc4C4CC4)ccc32)C1 [Example 32, (2-chlorothiazol-4-yl)((1R,3S)-5-(2-cyclopropylphenyl)-3-hydroxy-2,3-dihydrospiro[indene-1,3′-pyrrolidine]-1′-yl)ketone] | < 25
7 | CC(C)c1ccccc1-c1ccc2c(c1)[C@H](O)C[C@@]21CCN(C(=O)c2csc(Cl)n2)C1 [Example 33, (2-chlorothiazol-4-yl)((1S,3R)-3-hydroxy-5-(2-isopropylphenyl)-2,3-dihydrospiro[indene-1,3′-pyrrolidine]-1′-yl)ketone] | 70 to 100
8 | CC(C)c1ccccc1-c1ccc2c(c1)[C@H](O)C[C@]21CCN(C(=O)c2csc(Cl)n2)C1 [Example 34, (2-chlorothiazol-4-yl)((1R,3R)-3-hydroxy-5-(2-isopropylphenyl)-2,3-dihydrospiro[indene-1,3′-pyrrolidine]-1′-yl)ketone] | < 25
9 | CC(C)c1ccccc1-c1ccc2c(c1)[C@@H](O)C[C@@]21CCN(C(=O)c2csc(Cl)n2)C1 [Example 35, (2-chlorothiazol-4-yl)((1S,3S)-3-hydroxy-5-(2-isopropylphenyl)-2,3-dihydrospiro[indene-1,3′-pyrrolidine]-1′-yl)ketone] | < 25
10 | CC(C)c1ccccc1-c1ccc2c(c1)[C@@H](O)C[C@]21CCN(C(=O)c2csc(Cl)n2)C1 [Example 36, (2-chlorothiazol-4-yl)((1R,3S)-3-hydroxy-5-(2-isopropylphenyl)-2,3-dihydrospiro[indene-1,3′-pyrrolidine]-1′-yl)ketone] | < 25
11 | O=C(c1ccc(F)cn1)N1CCC2(C[C@@H](O)c3cc(-c4ccccc4C4CC4)ccc32)C1 (stereo partly drawn) [Example 45, ((3R)-5-(2-cyclopropylphenyl)-3-hydroxy-2,3-dihydrospiro[indene-1,3′-pyrrolidine]-1′-yl)(5-fluoropyridin-2-yl) ketone] | 70 to 100
12 | CNc1cncc(C(=O)N2CCC3(CC(O)c4cc(-c5ccccc5C5CC5)ccc43)C2)n1 (stereo not shown) [Example 48, (5-(2-cyclopropylphenyl)-3-hydroxy-2,3-dihydrospiro[indene-1,3′-pyrrolidine]-1′-yl)(6-(methylamino)pyrazin-2-yl) ketone] | 70 to 100

The remaining lines, values ahead:

Row | inhibition at 0.3 µM [%] | Structure (SMILES)
13 | 70 to 100 | O=C(c1cccc(C2CC2)n1)N1CC[C@@]2(C[C@@H](O)c3cc(-c4ccccc4C4CC4)ccc32)C1 [Example 37, ((1S,3R)-5-(2-cyclopropylphenyl)-3-hydroxy-2,3-dihydrospiro[indene-1,3′-pyrrolidine]-1′-yl)(6-cyclopropylpyridin-2-yl) ketone]
14 | < 25 | O=C(c1cccc(C2CC2)n1)N1CC[C@]2(C[C@@H](O)c3cc(-c4ccccc4C4CC4)ccc32)C1 [Example 38, ((1R,3R)-5-(2-cyclopropylphenyl)-3-hydroxy-2,3-dihydrospiro[indene-1,3′-pyrrolidine]-1′-yl)(6-cyclopropylpyridin-2-yl) ketone]
15 | < 25 | O=C(c1cccc(C2CC2)n1)N1CC[C@@]2(C[C@H](O)c3cc(-c4ccccc4C4CC4)ccc32)C1 [Example 39, ((1S,3S)-5-(2-cyclopropylphenyl)-3-hydroxy-2,3-dihydrospiro[indene-1,3′-pyrrolidine]-1′-yl)(6-cyclopropylpyridin-2-yl) ketone]
16 | < 25 | O=C(c1cccc(C2CC2)n1)N1CC[C@]2(C[C@H](O)c3cc(-c4ccccc4C4CC4)ccc32)C1 [Example 40, ((1R,3S)-5-(2-cyclopropylphenyl)-3-hydroxy-2,3-dihydrospiro[indene-1,3′-pyrrolidine]-1′-yl)(6-cyclopropylpyridin-2-yl) ketone]
17 | 70 to 100 | CC(C)c1ccccc1-c1ccc2c(c1)[C@H](O)C[C@@]21CCN(C(=O)c2cccc(C3CC3)n2)C1 [Example 41, (6-cyclopropylpyridin-2-yl)((1S,3R)-3-hydroxy-5-(2-isopropylphenyl)-2,3-dihydrospiro[indene-1,3′-pyrrolidine]-1′-yl)ketone]
18 | < 25 | CC(C)c1ccccc1-c1ccc2c(c1)[C@H](O)C[C@]21CCN(C(=O)c2cccc(C3CC3)n2)C1 [Example 42, (6-cyclopropylpyridin-2-yl)((1R,3R)-3-hydroxy-5-(2-isopropylphenyl)-2,3-dihydrospiro[indene-1,3′-pyrrolidine]-1′-yl)ketone]
19 | < 25 | CC(C)c1ccccc1-c1ccc2c(c1)[C@@H](O)C[C@@]21CCN(C(=O)c2cccc(C3CC3)n2)C1 [Example 43, (6-cyclopropylpyridin-2-yl)((1S,3S)-3-hydroxy-5-(2-isopropylphenyl)-2,3-dihydrospiro[indene-1,3′-pyrrolidine]-1′-yl)ketone]
20 | < 25 | CC(C)c1ccccc1-c1ccc2c(c1)[C@@H](O)C[C@]21CCN(C(=O)c2cccc(C3CC3)n2)C1 [Example 44, (6-cyclopropylpyridin-2-yl)((1R,3S)-3-hydroxy-5-(2-isopropylphenyl)-2,3-dihydrospiro[indene-1,3′-pyrrolidine]-1′-yl)ketone]
21 | < 25 | O=C(c1ccc(F)cn1)N1CCC2(C[C@H](O)c3cc(-c4ccccc4C4CC4)ccc32)C1 (stereo partly drawn) [Example 46, ((3S)-5-(2-cyclopropylphenyl)-3-hydroxy-2,3-dihydrospiro[indene-1,3′-pyrrolidine]-1′-yl)(5-fluoropyridin-2-yl) ketone]
22 | < 25 | COCc1cccc(C(=O)N2CCC3(CC(O)c4cc(-c5ccccc5C5CC5)ccc43)C2)n1 (stereo not shown) [Example 47, (5-(2-cyclopropylphenyl)-3-hydroxy-2,3-dihydrospiro[indene-1,3′-pyrrolidine]-1′-yl)(6-(methoxymethyl)pyridin-2-yl) ketone]
